Assay results from the supplement of paper PMC11451515.

Tested on: P12-Ichikawa
Assay: cell viability relative to DMSO control; higher = less cytotoxic
Settings: 48 h
Procedure, shortened: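 Viability values are per-plate percentages of DMSO wells, with background from cell-free wells. Library compounds in DMSO were pin-dosed, in an 11-point threefold series from 47 μM to 0.79 nM, onto NOMO1 or SEM (500 cells/well) or P12-Ichikawa (1000 cells/well) leukemia cells in 1536-well plates (5 μl). Those cells had been adapted for at least four passages in each medium, and CellTiter-Glo One luminescence was read after 48 h at 37°C.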

[1] = HPLM + 10% dialyzed FBS, 0.000781 µM
[2] = HPLM + 10% dialyzed FBS, 0.00234 µM
[3] = HPLM + 10% dialyzed FBS, 0.00702 µM
[4] = HPLM + 10% dialyzed FBS, 0.0211 µM
[5] = HPLM + 10% dialyzed FBS, 0.0632 µM
[6] = HPLM + 10% dialyzed FBS, 0.19 µM
[7] = HPLM + 10% dialyzed FBS, 0.569 µM
[8] = HPLM + 10% dialyzed FBS, 1.71 µM
[9] = HPLM + 10% dialyzed FBS, 5.12 µM
[10] = HPLM + 10% dialyzed FBS, 15.4 µM
[11] = HPLM + 10% dialyzed FBS, 46.1 µM
[12] = RPMI 5 mM glucose + 10% FBS, 0.000781 µM
[13] = RPMI 5 mM glucose + 10% FBS, 0.00234 µM
[14] = RPMI 5 mM glucose + 10% FBS, 0.00702 µM
[15] = RPMI 5 mM glucose + 10% FBS, 0.0211 µM
[16] = RPMI 5 mM glucose + 10% FBS, 0.0632 µM
[17] = RPMI 5 mM glucose + 10% FBS, 0.19 µM
[18] = RPMI 5 mM glucose + 10% FBS, 0.569 µM
[19] = RPMI 5 mM glucose + 10% FBS, 1.71 µM
[20] = RPMI 5 mM glucose + 10% FBS, 5.12 µM
[21] = RPMI 5 mM glucose + 10% FBS, 15.4 µM
[22] = RPMI 5 mM glucose + 10% FBS, 46.1 µM
[23] = RPMI 5 mM glucose + 10% dialyzed FBS, 0.000781 µM
[24] = RPMI 5 mM glucose + 10% dialyzed FBS, 0.00234 µM
[25] = RPMI 5 mM glucose + 10% dialyzed FBS, 0.00702 µM
[26] = RPMI 5 mM glucose + 10% dialyzed FBS, 0.0211 µM
[27] = RPMI 5 mM glucose + 10% dialyzed FBS, 0.0632 µM
[28] = RPMI 5 mM glucose + 10% dialyzed FBS, 0.19 µM
[29] = RPMI 5 mM glucose + 10% dialyzed FBS, 0.569 µM
[30] = RPMI 5 mM glucose + 10% dialyzed FBS, 1.71 µM
[31] = RPMI 5 mM glucose + 10% dialyzed FBS, 5.12 µM
[32] = RPMI 5 mM glucose + 10% dialyzed FBS, 15.4 µM
[33] = RPMI 5 mM glucose + 10% dialyzed FBS, 46.1 µM

Row | SMILES | cell viability [1] [%] | cell viability [2] [%] | cell viability [3] [%] | cell viability [4] [%] | cell viability [5] [%] | cell viability [6] [%] | cell viability [7] [%] | cell viability [8] [%] | cell viability [9] [%] | cell viability [10] [%] | cell viability [11] [%] | cell viability [12] [%] | cell viability [13] [%] | cell viability [14] [%] | cell viability [15] [%] | cell viability [16] [%] | cell viability [17] [%] | cell viability [18] [%] | cell viability [19] [%] | cell viability [20] [%] | cell viability [21] [%] | cell viability [22] [%] | cell viability [23] [%] | cell viability [24] [%] | cell viability [25] [%] | cell viability [26] [%] | cell viability [27] [%] | cell viability [28] [%] | cell viability [29] [%] | cell viability [30] [%] | cell viability [31] [%] | cell viability [32] [%] | cell viability [33] [%]
1 | COC1=CC=C(C=C1O)C/2=C/C(=O)C3=C(O2)C=C(O[C@@H]4O[C@H](CO[C@@H]5O[C@@H](C)[C@H](O)[C@@H](O)[C@H]5O)[C@@H](O)[C@H](O)[C@H]4O)C=C3O | 108 | 112 | 121 | 121 | 115 | 116 | 118 | 118 | 116 | 123 | 122 | 113 | 113 | 118 | 119 | 137 | 116 | 126 | 115 | 123 | 113 | 131 | 116 | 117 | 117 | 125 | 122 | 125 | 126 | 130 | 118 | 121 | 127
2 | CCN(c1ccccc1)c1cc(NC)[n+](C)c(C)n1 | 108 | 111 | 108 | 106 | 111 | 114 | 107 | 107 | 119 | 102 | 101 | 112 | 114 | 120 | 114 | 118 | 106 | 114 | 105 | 108 | 109 | 98.9 | 114 | 109 | 112 | 116 | 111 | 118 | 117 | 117 | 111 | 104 | 106
3 | COC(=O)\C1=C\CCN(C)C1 | 111 | 106 | 105 | 100 | 103 | 108 | 96.9 | 102 | 93.7 | 102 | 105 | 102 | 115 | 113 | 104 | 102 | 108 | 111 | 115 | 107 | 98.4 | 101 | 101 | 101 | 97 | 96.1 | 96.3 | 99.8 | 102 | 101 | 93 | 99 | 93.3
4 | CC(C)(O)c1cc2nc(-c3cnc(N)nc3)nc(N3CCOCC3)c2s1 | 120 | 121 | 122 | 125 | 118 | 111 | 108 | 86.2 | 74.1 | 72.6 | 70 | 117 | 127 | 121 | 112 | 114 | 103 | 81.8 | 66.5 | 61 | 49.4 | 48.8 | – | – | – | – | – | – | – | – | – | – | –
5 | OC1=CC2=C(C(=C1)O)C(=O)\C(=C(/O2)C3=CC(=C(O)C=C3)O)O | 98.8 | 99.2 | 108 | 113 | 112 | 111 | 107 | 110 | 116 | 102 | 79.3 | 93.8 | 107 | 103 | 103 | 109 | 105 | 110 | 101 | 107 | 101 | 85.9 | 107 | 108 | 113 | 103 | 117 | 100 | 117 | 108 | 118 | 109 | 73.2
6 | C1CCN2C[C@H]3C[C@H](\C=C/4CCCN[C@@H]34)[C@H]2C1 | 105 | 108 | 99.3 | 103 | 104 | 110 | 110 | 115 | 111 | 108 | 11.1 | 110 | 115 | 121 | 127 | 117 | 123 | 122 | 116 | 115 | 134 | 20.8 | 113 | 104 | 101 | 112 | 112 | 109 | 108 | 97.6 | 112 | 108 | 19.2
7 | CCOC(=O)Nc1ccc(NCc2ccc(F)cc2)nc1N | 114 | 114 | 110 | 113 | 120 | 117 | 109 | 105 | 96.5 | 94.6 | 107 | 107 | 116 | 116 | 125 | 118 | 111 | 110 | 102 | 91 | 108 | 99.8 | 115 | 101 | 101 | 104 | 111 | 111 | 112 | 103 | 104 | 101 | 100
8 | Nc1nc(Cl)nc2c1ncn2[C@@H]1O[C@H](CO)[C@@H](O)[C@@H]1F | 18.2 | 55.1 | 15.7 | 16.3 | 18.8 | 15.4 | 15.2 | 11.8 | 13.5 | 10.6 | 8.95 | 32.2 | 50 | 15.6 | 14.8 | 16.3 | 13.6 | 10.6 | 9.04 | 8.02 | 9.03 | 5.68 | 28.4 | 37.2 | 24.4 | 23.5 | 24.7 | 24.6 | 21.2 | 24.3 | 19 | 20.3 | 17.5
9 | CC(C)[C@H](N)C(=O)OCCOC[N]1C=NC2=C1\N=C(N)/NC2=O | 124 | 124 | 121 | 125 | 128 | 126 | 131 | 131 | 123 | 123 | 119 | 123 | 135 | 122 | 121 | 128 | 150 | 146 | 152 | 140 | 132 | 146 | – | – | – | – | – | – | – | – | – | – | –
10 | CC/1=C(\O)C(=O)\C=C2/C1=C/C=C3\[C@@]2(C)CC[C@@]4(C)[C@@H]5C[C@@](C)(CC[C@]5(C)CC[C@]34C)C(O)=O | 105 | 96.7 | 103 | 103 | 114 | 109 | 104 | 98.5 | 56.4 | 5.75 | 5.87 | 97.4 | 97.3 | 104 | 96.9 | 102 | 97.2 | 106 | 75.9 | 22.5 | 5.4 | 4.66 | 96.1 | 94.9 | 98.8 | 101 | 95.6 | 94.8 | 97.9 | 71.1 | 16.6 | 5.81 | 4.82
11 | CC(C)(O)/C=C\C(=O)[C@](C)(O)[C@H]1[C@H](O)C[C@]2(C)[C@@H]3CC=C4[C@@H](C=C(O)C(=O)C4(C)C)[C@]3(C)C(=O)C[C@@]12C | 94.8 | 106 | 103 | 99.6 | 99.7 | 50.9 | 15.1 | 18.4 | 21.6 | 12.9 | 4.2 | 113 | 105 | 111 | 107 | 97.9 | 47.3 | 12.4 | 15.1 | 17.1 | 6.22 | 2.85 | 93.9 | 98.5 | 93.9 | 104 | 102 | 43.8 | 14.6 | 17.9 | 20.9 | 6.49 | 3.06
12 | N#C/C(C(=O)c1ccc(Cl)cc1Cl)=C1/NC(=O)c2ccc(Cl)cc2N1 | 114 | 123 | 108 | 115 | 111 | 111 | 110 | 106 | 103 | 107 | 107 | 115 | 119 | 117 | 107 | 106 | 111 | 107 | 103 | 105 | 105 | 94.2 | 106 | 106 | 107 | 110 | 112 | 98.9 | 107 | 104 | 97.8 | 101 | 98.3
13 | Cc1c[nH]c(-c2cnc(NCCNc3ccc(C#N)cn3)nc2-c2ccc(Cl)cc2Cl)n1 | 75.2 | 83.3 | 80.6 | 88.1 | 87.7 | 88.9 | 88.3 | 94.3 | 91.2 | 91.1 | 16.4 | 67.6 | 82.5 | 77.7 | 78.7 | 79.9 | 80.6 | 78.9 | 83.5 | 75 | 89.1 | 24.8 | 75.1 | 85.3 | 80.2 | 80 | 81 | 82.2 | 78.8 | 80.6 | 84.1 | 92.9 | 29.9
14 | CN1CCN(CCOc2cc(OC3CCOCC3)c3c(Nc4c(Cl)ccc5c4OCO5)ncnc3c2)CC1 | 121 | 125 | 130 | 134 | 130 | 128 | 136 | 124 | 101 | 32.3 | 20 | – | – | – | – | – | – | – | – | – | – | – | – | – | – | – | – | – | – | – | – | – | –
15 | C[C@](N)(Cc1ccc(O)c(O)c1)C(=O)O | 95.1 | 90.6 | 91.4 | 96.8 | 102 | 87.7 | 77 | 90.4 | 87.8 | 81.2 | 84.8 | 90.8 | 93.3 | 87.2 | 89.3 | 93.3 | 92.9 | 83.2 | 81.1 | 81 | 80.8 | 84.9 | 85.1 | 85.1 | 83.5 | 88.2 | 89.3 | 82.1 | 82.5 | 81.8 | 76.1 | 81.8 | 81.4
